In brackets after ≈: the same amount, converted by molar mass. Counter-ions that a name gives are not always drawn. Like-named read-outs stand apart in the source and are kept apart here.
Tests used:
Assay type in all cases: cell-based
S. Aureus HH 127 = assay: MIC in vitro, S. Aureus HH 127 (G+); details: Staphylococcus aureus
Excerpt: (§1) Table 1 contains minimum inhibitory concentrations in μg./ml. of a number of representative compounds compared with standard agents.

S. Aureus SK 23390 = assay: MIC in vitro, S. Aureus SK 23390 (G+); details: Staphylococcus aureus
Excerpt: as §1

S. villaluz SK 70390 = assay: MIC in vitro, S. villaluz SK 70390 (G+); details: S. villaluz SK 70390, G+; read-out: MIC in vitro
Excerpt: as §1

Strep. Faecalis HH 34358 = assay: MIC in vitro, Strep. Faecalis HH 34358 (G+); details: for MIC: Enterococcus faecalis
Excerpt: as §1

E. coli SK 12140 = assay: MIC in vitro, E. coli SK 12140 (G-); details: Escherichia coli, SK12140
Excerpt: as §1

E. coli HH 33779 = assay: MIC in vitro, E. coli HH 33779 (G-); details: Escherichia coli, HH33779
Excerpt: as §1

Kleb. pneumoniae SK 4200 = assay: MIC in vitro, Kleb. pneumoniae SK 4200 (G-); details: Klebsiella pneumoniae, SK4200
Excerpt: as §1

Kleb. pneumoniae SK 1200 = assay: MIC in vitro, Kleb. pneumoniae SK 1200 (G-); details: Klebsiella pneumoniae, SK1200
Excerpt: as §1

Salmonella ATCC 12176 = assay: MIC in vitro, Salmonella ATCC 12176 (G-); details: for MIC: Salmonella, ATCC12176, Salmonella ATCC 12176, G-
Excerpt: as §1

Pseudo Aeruginosa HH 63 = assay: MIC in vitro, Pseudo Aeruginosa HH 63 (G-)
Excerpt: as §1

[1] = system: Serratia Marcescens ATCC 13880; assay: MIC in vitro, Serratia Marcescens ATCC 13880 (G-)
Excerpt: as §1

Proteus morgani 179 = assay: MIC in vitro, Proteus morgani 179 (G-)
Excerpt: as §1

[2] = system: Entero. aerogenes ATCC 13048; assay: MIC in vitro, Entero. aerogenes ATCC 13048 (G-); details: Klebsiella aerogenes, ATCC13048; Entero. aerogenes ATCC 13048, G-; read-out: MIC in vitro
Excerpt: as §1

Entero. cloacae HH 31254 = assay: MIC in vitro, Entero. cloacae HH 31254 (G-); details: Enterobacter cloacae, HH31254
Excerpt: as §1

P. Mirabils PM 444 = assay: MIC in vitro, P. Mirabils PM 444 (G-)
Excerpt: as §1

[3] = ATCC13880, Serratia Marcescens ATCC 13880, G-, read-out: MIC in vitro
[4] = P. Mirabils PM 444, G-, read-out: MIC in vitro

SMILES: CO[C@@]1(NC(=O)Cc2cccs2)C(=O)N2C(C(=O)O)=C(COC(N)=O)CS[C@@H]21 [Cefoxitin, reference compound]
- MIC (S. Aureus HH 127): 1.6 µg/mL (≈ 3.74 µM)
- MIC (S. Aureus SK 23390): 3.1 µg/mL (≈ 7.25 µM)
- MIC (S. villaluz SK 70390): 100 µg/mL (≈ 234 µM)
- MIC (Strep. Faecalis HH 34358): 200 µg/mL (≈ 468 µM)
- MIC (E. coli SK 12140): 6.3 µg/mL (≈ 14.7 µM)
- MIC (E. coli HH 33779): 12.5 µg/mL (≈ 29.2 µM)
- MIC (Kleb. pneumoniae SK 4200): 6.3 µg/mL (≈ 14.7 µM)
- MIC (Kleb. pneumoniae SK 1200): 3.1 µg/mL (≈ 7.25 µM)
- MIC (Salmonella ATCC 12176): 3.1 µg/mL (≈ 7.25 µM)
- MIC (Pseudo Aeruginosa HH 63): > 200 µg/mL
- MIC [1, 3]: 12.5 µg/mL (≈ 29.2 µM)
- MIC (Proteus morgani 179): 12.5 µg/mL (≈ 29.2 µM)
- MIC [2]: 25 µg/mL (≈ 58.5 µM)
- MIC (Entero. cloacae HH 31254): 6.3 µg/mL (≈ 14.7 µM)
- MIC (P. Mirabils PM 444; [4]): 6.3 µg/mL (≈ 14.7 µM)

SMILES: Cc1nnc(SCC2=C(C(=O)O)N3C(=O)[C@@H](NC(=O)Cn4cnnn4)[C@H]3SC2)s1 [Cefazolin, reference compound]
- MIC (S. Aureus HH 127): 0.4 µg/mL (≈ 0.88 µM)
- MIC (S. Aureus SK 23390): 0.2 µg/mL (≈ 0.44 µM)
- MIC (Strep. Faecalis HH 34358): 6.3 µg/mL (≈ 13.9 µM)
- MIC (E. coli SK 12140): 0.8 µg/mL (≈ 1.76 µM)
- MIC (E. coli HH 33779): 1.6 µg/mL (≈ 3.52 µM)
- MIC (Kleb. pneumoniae SK 4200): 1.6 µg/mL (≈ 3.52 µM)
- MIC (Kleb. pneumoniae SK 1200): 0.4 µg/mL (≈ 0.88 µM)
- MIC (Salmonella ATCC 12176): 0.8 µg/mL (≈ 1.76 µM)
- MIC (Pseudo Aeruginosa HH 63): > 200 µg/mL
- MIC [1, 3]: > 200 µg/mL
- MIC (Proteus morgani 179): 200 µg/mL (≈ 440 µM)
- MIC [2]: 1.6 µg/mL (≈ 3.52 µM)
- MIC (Entero. cloacae HH 31254): 0.8 µg/mL (≈ 1.76 µM)
- MIC (P. Mirabils PM 444; [4]): 3.1 µg/mL (≈ 6.82 µM)

SMILES: CO/N=C(\C(=O)N[C@@H]1C(=O)N2C(C(=O)O)=C(CSc3nnnn3CS(=O)(=O)O)CS[C@H]12)c1ccco1 [A, 7β-(syn-2-methoxyimino-2-α-furylacetamido)-3-(1-sulfomethyltetrazol-5-ylthiomethyl)-3-cephem-4-carboxylic acid disodium salt hydrate]
- MIC (S. Aureus HH 127): 3.1 µg/mL
- MIC (S. Aureus SK 23390): 3.1 µg/mL
- MIC (S. villaluz SK 70390): > 200 µg/mL
- MIC (Strep. Faecalis HH 34358): 100 µg/mL
- MIC in vitro (Strep. Faecalis HH 34358; disodium salt hydrate): 200 µg/mL
- MIC (E. coli SK 12140): 0.8 µg/mL
- MIC (E. coli HH 33779): 1.6 µg/mL
- MIC (Kleb. pneumoniae SK 4200): 0.8 µg/mL
- MIC (Kleb. pneumoniae SK 1200): 0.4 µg/mL
- MIC in vitro (Salmonella ATCC 12176; Salmonella ATCC 12176, G-, disodium salt hydrate): 0.8 µg/mL
- MIC (Salmonella ATCC 12176): 0.4 µg/mL
- MIC (Pseudo Aeruginosa HH 63): 100 µg/mL
- MIC [1, 3]: 3.1 µg/mL
- MIC ([1]; Serratia marcescens, ATCC13880, read-out: MIC in vitro, Serratia Marcescens ATCC 13880, G-): 6.3 µg/mL
- MIC (Proteus morgani 179): 1.6 µg/mL
- MIC [2]: 3.1 µg/mL
- MIC (Entero. cloacae HH 31254): 0.8 µg/mL
- MIC (P. Mirabils PM 444; [4]): 1.6 µg/mL
- MIC (P. Mirabils PM 444; read-out: MIC in vitro, P. Mirabils PM 444, G-): 0.2 µg/mL
